Data: patent publication US10324085B2, “Systems and methods for the monitoring of protein complex formation in cells” (priority 2013, dated 2019)
Values joined by “and” are separate entries in the source; they are usually repeats but may differ in a detail not shown here. Identical values can stand only once. Like-named read-outs stand apart in the source and are kept apart here.

Key:
ERα-ERα [1] = molecular target: T1, ERα-ERα (Homo sapiens, UniProt P03372); assay: cell-based
T1 construct: expressed in transfected cells; host or cells: HEK293
Target sequence in this assay (P03372 whole entry): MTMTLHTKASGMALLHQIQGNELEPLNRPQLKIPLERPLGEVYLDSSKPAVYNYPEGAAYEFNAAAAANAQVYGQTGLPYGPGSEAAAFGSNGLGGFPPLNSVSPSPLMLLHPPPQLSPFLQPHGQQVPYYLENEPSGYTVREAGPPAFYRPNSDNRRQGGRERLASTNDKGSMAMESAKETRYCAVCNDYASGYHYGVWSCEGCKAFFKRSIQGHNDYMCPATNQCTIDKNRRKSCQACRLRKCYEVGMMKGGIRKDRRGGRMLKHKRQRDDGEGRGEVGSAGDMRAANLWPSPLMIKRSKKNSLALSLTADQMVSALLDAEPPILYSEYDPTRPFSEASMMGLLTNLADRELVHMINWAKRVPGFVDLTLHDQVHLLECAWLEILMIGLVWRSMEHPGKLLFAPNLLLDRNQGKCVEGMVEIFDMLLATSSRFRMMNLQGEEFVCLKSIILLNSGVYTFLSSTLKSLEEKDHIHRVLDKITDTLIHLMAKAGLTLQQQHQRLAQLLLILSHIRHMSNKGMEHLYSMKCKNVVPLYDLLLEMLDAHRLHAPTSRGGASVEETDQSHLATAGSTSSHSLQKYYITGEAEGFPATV

[2] = molecular target: T2, RXRγ-RARα-CoRNBox complex (Homo sapiens, UniProt P10276); assay: BRETFect RXRγ-RARα-CoRNBox ternary complex in HEK293 cells; type: cell-based; conditions: 1 μM, 40 min
T2 construct: expressed in transfected cells; host or cells: HEK293
T2 sequence (P10276 1-462): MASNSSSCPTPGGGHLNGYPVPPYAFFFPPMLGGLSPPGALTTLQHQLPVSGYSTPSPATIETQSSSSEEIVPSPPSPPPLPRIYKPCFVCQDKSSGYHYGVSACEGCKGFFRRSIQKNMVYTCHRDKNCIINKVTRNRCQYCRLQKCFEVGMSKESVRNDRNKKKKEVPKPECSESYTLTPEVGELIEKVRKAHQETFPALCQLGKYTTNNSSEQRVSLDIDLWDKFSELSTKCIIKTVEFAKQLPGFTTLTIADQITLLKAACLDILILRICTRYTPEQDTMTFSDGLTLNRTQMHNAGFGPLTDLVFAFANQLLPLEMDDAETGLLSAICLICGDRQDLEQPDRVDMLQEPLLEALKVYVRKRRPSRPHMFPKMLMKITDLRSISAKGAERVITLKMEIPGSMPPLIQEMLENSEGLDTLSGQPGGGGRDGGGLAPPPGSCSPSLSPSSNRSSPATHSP
T2 sequence (P48443 1-463 partner): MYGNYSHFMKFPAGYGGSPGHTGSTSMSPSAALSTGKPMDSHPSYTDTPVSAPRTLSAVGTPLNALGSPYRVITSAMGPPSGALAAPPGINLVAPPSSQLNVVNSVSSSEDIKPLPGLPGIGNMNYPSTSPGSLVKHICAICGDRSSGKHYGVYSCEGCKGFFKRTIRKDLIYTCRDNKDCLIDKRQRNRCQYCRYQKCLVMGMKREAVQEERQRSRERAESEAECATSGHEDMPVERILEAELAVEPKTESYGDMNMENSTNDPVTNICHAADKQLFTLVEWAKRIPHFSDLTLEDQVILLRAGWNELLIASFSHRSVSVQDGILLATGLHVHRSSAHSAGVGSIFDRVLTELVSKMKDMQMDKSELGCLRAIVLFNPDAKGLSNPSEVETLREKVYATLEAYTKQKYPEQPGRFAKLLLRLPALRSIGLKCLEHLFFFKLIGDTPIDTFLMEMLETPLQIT
Protocol: Cells were treated for 40 min with vehicle DMSO (0) or all-trans retinoic acid (ATRA) before coelenterazine H addition and BRET measurement.

ERβ = ERβ (Homo sapiens, UniProt Q92731)
ERα-ERβ [3] = molecular target: T3, ERα-ERβ (Homo sapiens, UniProt P03372+Q92731); assay: cell-based; conditions: BRETFect titration curves, HEK293 cells, average of three biological replicates; read-out: EC50 (nM), recruitment of SRC1-RID, ERα-ERβ
T3 construct: expressed in transfected cells; host or cells: HEK293
Target sequence in this assay (Q15788 626-753): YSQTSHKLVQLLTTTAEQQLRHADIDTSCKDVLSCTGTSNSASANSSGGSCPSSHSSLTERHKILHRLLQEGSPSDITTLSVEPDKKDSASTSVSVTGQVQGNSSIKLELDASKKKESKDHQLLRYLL
Target sequence in this assay (P03372 whole entry): as the sequence (P03372 whole entry) above
Target sequence in this assay (Q92731 whole entry): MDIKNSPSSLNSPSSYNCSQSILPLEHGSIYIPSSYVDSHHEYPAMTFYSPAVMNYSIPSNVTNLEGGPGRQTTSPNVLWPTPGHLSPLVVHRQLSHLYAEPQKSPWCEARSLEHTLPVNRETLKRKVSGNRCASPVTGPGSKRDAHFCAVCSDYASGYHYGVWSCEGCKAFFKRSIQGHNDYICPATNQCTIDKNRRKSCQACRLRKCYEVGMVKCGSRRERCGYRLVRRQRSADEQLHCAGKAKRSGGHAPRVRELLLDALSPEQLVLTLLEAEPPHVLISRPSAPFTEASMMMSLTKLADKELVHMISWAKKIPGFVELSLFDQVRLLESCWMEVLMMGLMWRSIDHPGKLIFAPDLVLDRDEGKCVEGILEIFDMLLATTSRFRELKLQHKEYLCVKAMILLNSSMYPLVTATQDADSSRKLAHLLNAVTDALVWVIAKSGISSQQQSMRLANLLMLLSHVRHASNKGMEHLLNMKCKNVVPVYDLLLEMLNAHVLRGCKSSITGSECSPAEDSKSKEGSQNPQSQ

ERα-ERβ [4] = molecular target: T3, ERα-ERβ; assay: cell-based
Target sequence in this assay (Q92731 whole entry): as above
Target sequence in this assay (P03372 whole entry): as the sequence (P03372 whole entry) above
Target sequence in this assay (as listed by the source): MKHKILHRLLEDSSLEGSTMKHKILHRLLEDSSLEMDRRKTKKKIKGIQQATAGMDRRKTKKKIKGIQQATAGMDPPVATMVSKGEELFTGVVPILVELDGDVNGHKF

ERα-ERα [5] = molecular target: T1, ERα-ERα; assay: cell-based; conditions: BRETFect titration curves, HEK293 cells, average of three biological replicates; read-out: EC50 (nM), recruitment of SRC1-RID, ERα-ERα
Target sequence in this assay (P03372 whole entry): as the sequence (P03372 whole entry) above
Target sequence in this assay (Q15788 626-753, further chain): as the sequence (Q15788 626-753) above

Chain of ERβ (Q92731 whole entry, species assumed): as the sequence (Q92731 whole entry) above

## 4-hydroxytamoxifen [OHT]
ERα-ERα [1]
  BRETFect signal (delta BRET), coactivator motif recruitment to ERα dimers: suppresses coactivator motif recruitment

## CC1=C(/C=C/C(C)=C/C=C/C(C)=C/C(=O)O)C(C)(C)CCC1 [ATRA, all-trans retinoic acid]
[2]
  RXRγ-RARα-CoRNBox ternary complex, net BRET: the ternary complex is disassembled

## C[C@]12CC[C@@H]3c4ccc(O)cc4CC[C@H]3[C@@H]1CC[C@@H]2O [E2, 17-beta-Estradiol]
ERβ
  recruitment of CoApep-Venus to ERβ, BRET: E2-induced

## CCCc1c(-c2ccc(O)cc2)nn(-c2ccc(O)cc2)c1-c1ccc(O)cc1 [PPT, propylpyrazole triol]
ERα-ERα [1]; BRETFect titration curves, HEK293 cells, average of three biological replicates, read-out: EC50 (nM), recruitment of the coactivator motif peptide, ERα-ERα
  EC50: 0.5 nM and 0.547 nM
ERα-ERβ [3]
  EC50: 25.1 nM
ERα-ERβ [4]; BRETFect titration curves, HEK293 cells, average of three biological replicates, read-out: EC50 (nM), recruitment of the coactivator motif peptide, ERα-ERβ
  EC50: 28 nM and 28.4 nM
ERα-ERβ [4]; relative to BRETmax observed with E2
  % of the BRETmax for CoApep recruitment by ERα-ERβ heterodimer: 50%
ERα-ERα [5]
  EC50: 0.968 nM
